Reference: US8987312B2, “Alpha-keto heterocycles as FAAH inhibitors” (The Scripps Research Institute, priority 2008, dated 2015)

These compounds were tested against T1, KIAA1363 (Mus musculus, UniProt Q8BLF1) (assay: Activity based protein profiling (proteome-wide selectivity screening, FP-Rh), KIAA1363). Settings: Table 4; activity based protein profiling.
T1 construct: with FP-Rh in brain and heart membrane proteome; from tissue; host or cells: brain and heart membrane proteome
T1 sequence (Q8BLF1 1-408): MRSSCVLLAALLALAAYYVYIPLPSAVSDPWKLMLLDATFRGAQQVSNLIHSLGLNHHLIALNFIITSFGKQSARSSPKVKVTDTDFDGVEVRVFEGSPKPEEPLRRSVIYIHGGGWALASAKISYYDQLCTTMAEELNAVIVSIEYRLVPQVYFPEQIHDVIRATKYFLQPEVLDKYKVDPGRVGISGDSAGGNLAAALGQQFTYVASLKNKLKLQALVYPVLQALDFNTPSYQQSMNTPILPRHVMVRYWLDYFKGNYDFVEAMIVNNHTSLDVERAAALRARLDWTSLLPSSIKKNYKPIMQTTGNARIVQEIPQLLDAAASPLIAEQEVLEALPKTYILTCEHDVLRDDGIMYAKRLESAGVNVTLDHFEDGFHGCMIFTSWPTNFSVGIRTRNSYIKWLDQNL
Type: biochemical
Text: (§1) Enzyme targets such as FAAH, KIAA1363, and TGH are labeled at the left margin.

IC50 [nM]	Compound
> 100000	COC(=O)c1cccc(-c2nnc(C(=O)CCCCCCc3ccccc3)o2)n1 [8f, Methyl 6-(5-(7-Phenylheptanoyl)-1,3,4-oxadiazol-2-yl)-picolinate]
> 100000	N#Cc1cccc(-c2ccc(C(=O)CCCCCCc3ccccc3)nn2)n1 [13h, 6-(6-(7-Phenylheptanoyl)-pyridazin-3-yl)-picolinonitrile]
> 100000	COC(=O)c1cccc(-c2cnc(C(=O)CCCCCCc3ccccc3)s2)n1 [11f, Methyl 6-(2-(7-Phenylheptanoyl)-thiazol-5-yl)-picolinate]
> 100000	COC(=O)c1cccc(-c2ccc(C(=O)CCCCCCc3ccccc3)nn2)n1 [13f, Methyl 6-(6-(7-Phenylheptanoyl)-pyridazin-3-yl)-picolinate]

More lines, now with the values behind:

Compound	IC50 [nM]
COC(=O)c1cccc(-c2cnc(C(=O)CCCCCCc3ccccc3)o2)n1 [7f]	40000
O=C(CCCCCCc1ccccc1)c1ncc(-c2cccs2)o1 [7d]	> 100000
O=C(CCCCCCc1ccccc1)c1nnco1 [8a, 1-(1,3,4-Oxadiazol-2-yl)-7-phenylheptan-1-one]	> 100000
O=C(CCCCCCc1ccccc1)c1ncc(-c2ccccc2)o1 [7e]	> 100000
O=C(CCCCCCc1ccccc1)c1nncs1 [12a, 7-Phenyl-1-(1,3,4-thiadiazol-2-yl)-heptan-1-one]	> 100000

Same assay, conditions: Table 4; ratio KIAA1363 IC50 / FAAH IC50 (fold selectivity for FAAH)

KIAA1363 selectivity (value in parentheses)	Compound
> 12500	COC(=O)c1cccc(-c2nnc(C(=O)CCCCCCc3ccccc3)o2)n1 [8f, Methyl 6-(5-(7-Phenylheptanoyl)-1,3,4-oxadiazol-2-yl)-picolinate]
> 8	N#Cc1cccc(-c2ccc(C(=O)CCCCCCc3ccccc3)nn2)n1 [13h, 6-(6-(7-Phenylheptanoyl)-pyridazin-3-yl)-picolinonitrile]
> 10	COC(=O)c1cccc(-c2ccc(C(=O)CCCCCCc3ccccc3)nn2)n1 [13f, Methyl 6-(6-(7-Phenylheptanoyl)-pyridazin-3-yl)-picolinate]

Continued, compound first:

Compound	KIAA1363 selectivity (value in parentheses)
O=C(CCCCCCc1ccccc1)c1ncc(-c2cccs2)o1 [7d]	> 125
O=C(CCCCCCc1ccccc1)c1nnco1 [8a, 1-(1,3,4-Oxadiazol-2-yl)-7-phenylheptan-1-one]	> 6250
O=C(CCCCCCc1ccccc1)c1nncs1 [12a, 7-Phenyl-1-(1,3,4-thiadiazol-2-yl)-heptan-1-one]	> 330

The compounds below were run against T2, FAAH (Mus musculus, UniProt O08914) (assay: Activity based protein profiling (proteome-wide selectivity screening, FP-Rh), FAAH). Settings: Table 4.
T2 construct: with FP-Rh in brain and heart membrane proteome; from tissue; host or cells: brain and heart membrane proteome
T2 sequence (O08914 1-579): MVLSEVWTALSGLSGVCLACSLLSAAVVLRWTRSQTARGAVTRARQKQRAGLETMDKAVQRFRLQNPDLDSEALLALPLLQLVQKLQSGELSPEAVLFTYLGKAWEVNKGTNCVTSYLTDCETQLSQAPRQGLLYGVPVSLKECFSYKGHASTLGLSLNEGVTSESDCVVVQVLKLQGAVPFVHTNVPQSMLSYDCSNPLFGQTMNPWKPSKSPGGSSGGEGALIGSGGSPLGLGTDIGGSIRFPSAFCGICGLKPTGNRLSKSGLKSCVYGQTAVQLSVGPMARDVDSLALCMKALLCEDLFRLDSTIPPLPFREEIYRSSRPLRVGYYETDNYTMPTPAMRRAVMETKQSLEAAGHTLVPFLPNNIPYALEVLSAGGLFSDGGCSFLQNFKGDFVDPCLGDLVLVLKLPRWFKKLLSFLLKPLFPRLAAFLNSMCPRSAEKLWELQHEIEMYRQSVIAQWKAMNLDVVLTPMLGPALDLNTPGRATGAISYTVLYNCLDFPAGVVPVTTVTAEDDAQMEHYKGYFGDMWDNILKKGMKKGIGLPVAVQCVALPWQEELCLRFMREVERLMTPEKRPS
Type: biochemical
Text: as §1

IC50 [nM]	Compound
8	COC(=O)c1cccc(-c2nnc(C(=O)CCCCCCc3ccccc3)o2)n1 [8f, Methyl 6-(5-(7-Phenylheptanoyl)-1,3,4-oxadiazol-2-yl)-picolinate]
13000	N#Cc1cccc(-c2ccc(C(=O)CCCCCCc3ccccc3)nn2)n1 [13h, 6-(6-(7-Phenylheptanoyl)-pyridazin-3-yl)-picolinonitrile]
> 100000	COC(=O)c1cccc(-c2cnc(C(=O)CCCCCCc3ccccc3)s2)n1 [11f, Methyl 6-(2-(7-Phenylheptanoyl)-thiazol-5-yl)-picolinate]
10000	COC(=O)c1cccc(-c2ccc(C(=O)CCCCCCc3ccccc3)nn2)n1 [13f, Methyl 6-(6-(7-Phenylheptanoyl)-pyridazin-3-yl)-picolinate]

The remaining lines, values behind:

Compound	IC50 [nM]
COC(=O)c1cccc(-c2cnc(C(=O)CCCCCCc3ccccc3)o2)n1 [7f]	170
O=C(CCCCCCc1ccccc1)c1ncc(-c2cccs2)o1 [7d]	800
O=C(CCCCCCc1ccccc1)c1nnco1 [8a, 1-(1,3,4-Oxadiazol-2-yl)-7-phenylheptan-1-one]	16
O=C(CCCCCCc1ccccc1)c1ncc(-c2ccccc2)o1 [7e]	900
O=C(CCCCCCc1ccccc1)c1nncs1 [12a, 7-Phenyl-1-(1,3,4-thiadiazol-2-yl)-heptan-1-one]	300

The compounds below were run against T3, triacylglycerol hydrolase (TGH) (Mus musculus, UniProt Q8VCT4) (assay: Activity based protein profiling (proteome-wide selectivity screening, FP-Rh), TGH). Settings: Table 4; activity based protein profiling.
T3 construct: with FP-Rh in brain and heart membrane proteome; from tissue; host or cells: brain and heart membrane proteome
T3 sequence (Q8VCT4 19-565): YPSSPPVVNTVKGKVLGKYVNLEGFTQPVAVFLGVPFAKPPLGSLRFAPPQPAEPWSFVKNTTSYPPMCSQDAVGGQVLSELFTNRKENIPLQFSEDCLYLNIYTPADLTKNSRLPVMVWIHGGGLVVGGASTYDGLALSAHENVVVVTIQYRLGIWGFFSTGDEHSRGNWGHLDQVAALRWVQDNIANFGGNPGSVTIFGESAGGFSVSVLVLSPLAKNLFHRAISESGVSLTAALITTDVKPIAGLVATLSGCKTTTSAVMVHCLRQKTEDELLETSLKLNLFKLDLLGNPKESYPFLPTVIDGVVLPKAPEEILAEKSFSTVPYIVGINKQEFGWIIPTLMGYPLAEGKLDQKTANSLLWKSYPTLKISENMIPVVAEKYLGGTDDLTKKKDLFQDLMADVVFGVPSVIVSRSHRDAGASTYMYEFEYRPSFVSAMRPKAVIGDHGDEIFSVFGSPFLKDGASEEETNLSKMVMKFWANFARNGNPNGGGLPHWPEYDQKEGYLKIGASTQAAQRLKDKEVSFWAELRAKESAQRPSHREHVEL
Type: biochemical
Text: as §1

IC50 [nM]	Compound
40	COC(=O)c1cccc(-c2nnc(C(=O)CCCCCCc3ccccc3)o2)n1 [8f, Methyl 6-(5-(7-Phenylheptanoyl)-1,3,4-oxadiazol-2-yl)-picolinate]
12000	N#Cc1cccc(-c2ccc(C(=O)CCCCCCc3ccccc3)nn2)n1 [13h, 6-(6-(7-Phenylheptanoyl)-pyridazin-3-yl)-picolinonitrile]
40000	COC(=O)c1cccc(-c2cnc(C(=O)CCCCCCc3ccccc3)s2)n1 [11f, Methyl 6-(2-(7-Phenylheptanoyl)-thiazol-5-yl)-picolinate]
> 100000	COC(=O)c1cccc(-c2ccc(C(=O)CCCCCCc3ccccc3)nn2)n1 [13f, Methyl 6-(6-(7-Phenylheptanoyl)-pyridazin-3-yl)-picolinate]

Further lines, the compound ahead of its results:

Compound	IC50 [nM]
COC(=O)c1cccc(-c2cnc(C(=O)CCCCCCc3ccccc3)o2)n1 [7f]	1000
O=C(CCCCCCc1ccccc1)c1ncc(-c2cccs2)o1 [7d]	200
O=C(CCCCCCc1ccccc1)c1nnco1 [8a, 1-(1,3,4-Oxadiazol-2-yl)-7-phenylheptan-1-one]	25
O=C(CCCCCCc1ccccc1)c1ncc(-c2ccccc2)o1 [7e]	700
O=C(CCCCCCc1ccccc1)c1nncs1 [12a, 7-Phenyl-1-(1,3,4-thiadiazol-2-yl)-heptan-1-one]	100

Same assay, conditions: Table 4; ratio TGH IC50 / FAAH IC50 (fold selectivity for FAAH)

TGH selectivity (value in parentheses)	Compound
5	COC(=O)c1cccc(-c2nnc(C(=O)CCCCCCc3ccccc3)o2)n1 [8f, Methyl 6-(5-(7-Phenylheptanoyl)-1,3,4-oxadiazol-2-yl)-picolinate]
1	N#Cc1cccc(-c2ccc(C(=O)CCCCCCc3ccccc3)nn2)n1 [13h, 6-(6-(7-Phenylheptanoyl)-pyridazin-3-yl)-picolinonitrile]
< 0.4	COC(=O)c1cccc(-c2cnc(C(=O)CCCCCCc3ccccc3)s2)n1 [11f, Methyl 6-(2-(7-Phenylheptanoyl)-thiazol-5-yl)-picolinate]
> 10	COC(=O)c1cccc(-c2ccc(C(=O)CCCCCCc3ccccc3)nn2)n1 [13f, Methyl 6-(6-(7-Phenylheptanoyl)-pyridazin-3-yl)-picolinate]

Further lines, the compound ahead of its results:

Compound	TGH selectivity (value in parentheses)
O=C(CCCCCCc1ccccc1)c1ncc(-c2cccs2)o1 [7d]	0.25
O=C(CCCCCCc1ccccc1)c1nnco1 [8a, 1-(1,3,4-Oxadiazol-2-yl)-7-phenylheptan-1-one]	1.5

Each compound was assayed against T4, purified recombinant rat FAAH (Rattus norvegicus, UniProt P97612) (assay: FAAH inhibition enzyme assay (14C-oleamide hydrolysis, Dixon plot), rat enzyme). Settings: Table 2; rat FAAH, pH 9 assay conditions; read-out: Ki.
T4 construct: The truncated rat FAAH (rFAAH) was expressed in E. coli and purified as described; made in house; host or cells: Escherichia coli
T4 sequence (P97612 30-579 limits assumed): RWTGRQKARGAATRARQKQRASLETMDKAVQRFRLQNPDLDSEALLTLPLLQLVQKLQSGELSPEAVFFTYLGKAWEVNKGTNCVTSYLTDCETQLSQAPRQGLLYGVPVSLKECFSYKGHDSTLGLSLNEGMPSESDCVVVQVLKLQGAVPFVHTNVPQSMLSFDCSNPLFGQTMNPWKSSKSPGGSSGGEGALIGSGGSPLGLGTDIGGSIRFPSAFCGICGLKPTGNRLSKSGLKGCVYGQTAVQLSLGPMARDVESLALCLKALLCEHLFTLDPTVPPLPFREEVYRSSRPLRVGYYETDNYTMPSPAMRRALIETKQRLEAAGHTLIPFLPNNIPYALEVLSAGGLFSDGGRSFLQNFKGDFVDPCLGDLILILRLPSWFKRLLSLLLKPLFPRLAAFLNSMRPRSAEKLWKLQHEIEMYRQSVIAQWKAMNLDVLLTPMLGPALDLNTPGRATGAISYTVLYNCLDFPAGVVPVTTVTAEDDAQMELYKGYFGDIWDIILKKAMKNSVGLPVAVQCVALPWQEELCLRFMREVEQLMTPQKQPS
Type: biochemical
Text: The purified recombinant rFAAH was used in the inhibition assays unless otherwise indicated.
The ^14C-labeled oleamide (substrate) and oleic acid (product) were extracted with EtOAc and analyzed by TLC.

Ki [nM]	Compound
3	COC(=O)c1cccc(-c2nnc(C(=O)CCCCCCc3ccccc3)o2)n1 [8f, Methyl 6-(5-(7-Phenylheptanoyl)-1,3,4-oxadiazol-2-yl)-picolinate]
500	COC(=O)c1cccc(-c2cnc(C(=O)CCCCCCc3ccccc3)s2)n1 [11f, Methyl 6-(2-(7-Phenylheptanoyl)-thiazol-5-yl)-picolinate]
110	COC(=O)c1cccc(-c2ccc(C(=O)CCCCCCc3ccccc3)nn2)n1 [13f, Methyl 6-(6-(7-Phenylheptanoyl)-pyridazin-3-yl)-picolinate]

More lines, now with the values behind:

Compound	Ki [nM]
O=C(CCCCCCc1ccccc1)c1ncc(-c2cccs2)o1 [7d]	55
O=C(CCCCCCc1ccccc1)c1nnco1 [8a, 1-(1,3,4-Oxadiazol-2-yl)-7-phenylheptan-1-one]	1
O=C(CCCCCCc1ccccc1)c1nncs1 [12a, 7-Phenyl-1-(1,3,4-thiadiazol-2-yl)-heptan-1-one]	1.4

Same assay, conditions: Table 4; read-out: FAAH Ki

Ki [nM]	Compound
3	COC(=O)c1cccc(-c2nnc(C(=O)CCCCCCc3ccccc3)o2)n1 [8f, Methyl 6-(5-(7-Phenylheptanoyl)-1,3,4-oxadiazol-2-yl)-picolinate]
390	N#Cc1cccc(-c2ccc(C(=O)CCCCCCc3ccccc3)nn2)n1 [13h, 6-(6-(7-Phenylheptanoyl)-pyridazin-3-yl)-picolinonitrile]
500	COC(=O)c1cccc(-c2cnc(C(=O)CCCCCCc3ccccc3)s2)n1 [11f, Methyl 6-(2-(7-Phenylheptanoyl)-thiazol-5-yl)-picolinate]
110	COC(=O)c1cccc(-c2ccc(C(=O)CCCCCCc3ccccc3)nn2)n1 [13f, Methyl 6-(6-(7-Phenylheptanoyl)-pyridazin-3-yl)-picolinate]

Further lines, the compound ahead of its results:

Compound	Ki [nM]
O=C(CCCCCCc1ccccc1)c1ncc(-c2cccs2)o1 [7d]	55
O=C(CCCCCCc1ccccc1)c1nnco1 [8a, 1-(1,3,4-Oxadiazol-2-yl)-7-phenylheptan-1-one]	1
O=C(CCCCCCc1ccccc1)c1nncs1 [12a, 7-Phenyl-1-(1,3,4-thiadiazol-2-yl)-heptan-1-one]	1.4
